Results from BindingDB's records for doi:10.1021/jm990250u (Hoechst Marion Roussel, 1999).

target: Stromelysin-1 (Homo sapiens, UniProt P08254); experiment: Inhibitory concentration against human matrix metalloprotease-3 (MMP-3)
Sequence (P08254 whole entry): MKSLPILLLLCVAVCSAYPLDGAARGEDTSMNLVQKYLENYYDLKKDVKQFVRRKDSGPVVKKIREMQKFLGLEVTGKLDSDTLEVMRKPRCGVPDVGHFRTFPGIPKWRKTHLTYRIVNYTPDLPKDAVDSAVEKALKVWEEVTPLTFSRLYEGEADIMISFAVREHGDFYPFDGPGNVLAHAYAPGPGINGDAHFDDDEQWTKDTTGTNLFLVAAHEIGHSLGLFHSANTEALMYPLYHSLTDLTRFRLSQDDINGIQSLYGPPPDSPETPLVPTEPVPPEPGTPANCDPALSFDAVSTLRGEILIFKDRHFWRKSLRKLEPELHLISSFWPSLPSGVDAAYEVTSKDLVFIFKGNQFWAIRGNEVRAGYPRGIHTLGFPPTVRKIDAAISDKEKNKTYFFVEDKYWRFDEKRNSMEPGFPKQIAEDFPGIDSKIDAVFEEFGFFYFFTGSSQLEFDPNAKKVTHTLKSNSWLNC

| Structure (SMILES) | IC50 |
| --- | --- |
| O=C(NO)C1Cc2ccccc2CN1S(=O)(=O)Cc1ccccc1 (configuration not stated) [2-Phenylmethanesulfonyl-1,2,3,4-tetrahydro-isoquinoline-3-carboxylic acid hydroxyamide] | 10 µM |
| CCCCCCCCCCCCCCCCS(=O)(=O)N1Cc2ccccc2CC1C(=O)NO (configuration not stated) [2-(Hexadecane-1-sulfonyl)-1,2,3,4-tetrahydro-isoquinoline-3-carboxylic acid hydroxyamide] | 10 µM |
| O=C(NO)C1Cc2ccccc2CN1S(=O)(=O)c1cc(S(=O)(=O)c2ccccc2)cs1 (configuration not stated) [2-(4-Benzenesulfonyl-thiophene-2-sulfonyl)-1,2,3,4-tetrahydro-isoquinoline-3-carboxylic acid hydroxyamide] | 10 µM |
| O=C(NO)C1Cc2ccccc2CN1S(=O)(=O)c1cc(Br)c(Br)s1 (configuration not stated) [2-(4,5-Dibromo-thiophene-2-sulfonyl)-1,2,3,4-tetrahydro-isoquinoline-3-carboxylic acid hydroxyamide] | 10 µM |
| COc1ccc(S(=O)(=O)N2Cc3ncn(C)c3C[C@@H]2C(=O)O)cc1 [(R)-5-(4-Methoxy-benzenesulfonyl)-1-methyl-4,5,6,7-tetrahydro-1H-imidazo[4,5-c]pyridine-6-carboxylic acid] | 10 µM |
| O=C(Nc1cccc(S(=O)(=O)N2Cc3ccccc3CC2C(=O)NO)c1)c1ccccc1O (configuration not stated) [2-[3-(2-Hydroxy-benzoylamino)-benzenesulfonyl]-1,2,3,4-tetrahydro-isoquinoline-3-carboxylic acid hydroxyamide] | 10 µM |
| CSc1nccc(-c2ccc(S(=O)(=O)N3Cc4ccccc4CC3C(=O)O)s2)n1 (configuration not stated) | 10 µM |
